Consider 13 molecules from patent US11059795B2, “Androgen receptor modulators and methods for their use” (ESSA Pharma, Inc., priority 2018, dated 2021).

The nature of series [1]: Microsomal stability assay, human liver microsomes. In kind it is in vitro ADME. To be noted: pH 7.4, 1 μM compound, 0.5 mg/mL protein, 37° C., read-out: HLM +/− NADPH: Clint (μL/min/mg protein). An outline of the steps:
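Compound at 1 μM was incubated at 37° C with 0.5 mg/mL liver microsomes and 1 mM NADPH and/or 1 mM UDPGA (with alamethicin) in 100 mM potassium phosphate pH 7.4, 3 mM MgCl2. Samples were taken at 0, 15, 30 and 60 min and measured by LC/MS/MS. t½ came from compound loss relative to 0 min, and Clint was scaled with 45 mg microsomal protein/g liver.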

Series [2] is described as follows: Microsomal stability assay, mouse liver microsomes. It counts as in vitro ADME. The conditions noted are these: 1 μM compound, 0.5 mg/mL protein, 37° C.; for microsomal CLint at 1 μM: mouse, liver microsomes, pH 7.4, mouse liver microsomes, read-out: MLM +30/− NADPH: Clint (μL/min/mg protein). How it is done:
Microsomal stability assay is a widely used in vitro model to characterize the metabolic conversion by phase I enzymes, such as cytochrome P450 (CYP) enzymes. Since metabolism is known to be highly variable in different species, microsomal stability assay is commonly run in multiple species. Metabolic stability of testing compound can be evaluated using human, rat, mouse, or other animal liver or intestine microsomes to predict intrinsic clearance.
The assay was carried out in 96-well microtiter plates at 37° C. Reaction mixtures (25 μL) contained a final concentration of 1 μM test compound, 0.5 mg/mL liver microsomes protein, and 1 mM NADPH and/or 1 mM UDPGA (with alamethicin) in 100 mM potassium phosphate, pH 7.4 buffer with 3 mM MgCl2. The incubation was done with N=1, but duplicate incubation at each time point can be prepared if necessary. At each of the time points (for example, 0, 15, 30, and 60 minutes), 150 μL of quench solution (100% acetonitrile with 0.1% formic acid) with internal standard was transferred to each well. Besides the zero minute controls, mixtures containing the same components except the NADPH can also be prepared as the negative control. Verapamil was included as a positive control to verify assay performance. Plates were sealed, vortexed, and centrifuged at 4° C. for 15 minutes at 4000 rpm. The supernatant is transferred to fresh plates for LC/MS/MS analysis.
Summarized conditions: [Compound]=[…], [LM]=0.5 mg/mL, [NADPH]=1 mM and/or [UDPGA]=1 mM, Buffer=100 mM Potassium Phosphate, pH 7.4 with 3 mM MgCl2, Time=0, 15, 30, and 60 min, and Temperature=37° C.
(§1) All samples were analyzed on LC/MS/MS using an AB Sciex API 4000 instrument, coupled to a Shimadzu LC-20AD LC Pump system. Analytical samples were separated using a Waters Atlantis T3 dC18 reverse phase HPLC column (20 mm×2.1 mm) at a flow rate of 0.5 mL/min. The mobile phase consisted of 0.1% formic acid in water (solvent A) and 0.1% formic acid in 100% acetonitrile (solvent B).
The extent of metabolism is calculated as the disappearance of the test compound, compared to the 0-min time incubation. Initial rates are calculated for the compound concentration and used to determine half-life (t½) values and subsequently, the intrinsic clearance (Clint). Clint=(0.693)(1/t½ (min))(g of liver/kg of body weight)(mL incubation/mg of microsomal protein)(45 mg of microsomal protein/g of liver weight)
In general terms: Microsomes from liver hold many membrane-bound enzymes, among them those of drug oxidation.

Series [3] is described as follows: Hepatocyte stability assay, mouse hepatocytes. To be noted: 1 μM compound, 0.5 million cells/mL, 37° C.; for hepatocyte CLint at 1 μM: mouse, cryopreserved hepatocytes, read-out: MH +/− NADPH: Clint (μL/min/million cells). In kind it is in vitro ADME.
Description: The […] of in vitro intrinsic clearance (Clint) for drug candidates in the early discovery stage is common practice in the pharmaceutical industry. The Clint values of drug candidates can help to confirm whether metabolism is the main clearance pathway when it is compared with the total body clearance in vivo. Hepatocytes are among the routinely used in vitro systems for measuring clearance. Hepatocytes have been reported to retain most of the phase I and phase II metabolic activities, and therefore, it is a useful tool to estimate the intrinsic clearance for potential drug candidates.
Metabolic stability of testing compound were be evaluated using human and mouse hepatocytes and can also be use rat, mouse, or other animal hepatocytes to predict intrinsic clearance. Cryopreserved hepatocytes were removed from the liquid nitrogen tank and thawed in a 37° C. water bath. As soon as the cells pulled away from the vial wall, they were decanted into 48 ml of warm HT medium. Cells were centrifuged for four minutes at 420 rpm (50 g). After removing the supernatant, pellet was re-suspended in warm DMEM medium. Cell density was counted by a hemacytometer.
The assay was carried out in 96-well microtiter plates. Compounds were incubated for 0, 60, 120, and 180 minutes at 37° C. with hepatocytes. Reaction mixtures (50 μL) contained a final concentration of 1 μM test compound, 0.5 million cells/mL hepatocytes in the DMEM medium. At each of the time points (for example, 0, 1, 2, and 3 hours), 200 μL of quench solution (100% acetonitrile with 0.1% formic acid) with internal standard was transferred to each well. Midazolam was included as a positive control to verify assay performance. Plates were sealed and centrifuged at 4° C. for 15 minutes at 4000 rpm. The supernatant is transferred to fresh plates for LC/MS/MS analysis.
Summarized conditions (customizable): [Compound]=[…], Positive control: midazolam and/or naloxone, [Hepatocyte]=0.5 million cells/Ml, time=0, 60, 120, and 180 min, t=37° C.
as §1
The extent of metabolism was calculated as the disappearance of the test compound, compared to the 0-min control reaction incubations. Initial rates were calculated for the compound concentration and used to determine t½ values and subsequently, the intrinsic clearance, Clint. Clint=(0.693)(1/t½(min))(mL incubation/million cells)

The next series concerns the target T1, androgen receptor (AR) (Homo sapiens, UniProt P10275, T878A).
T1 construct: LNCaP cells were transiently transfected with the PSA (6.1 kb)-luciferase reporter for 24 h; endogenous in cells; host or cells: LNCaP
T1 sequence (P10275 1-920 T878A): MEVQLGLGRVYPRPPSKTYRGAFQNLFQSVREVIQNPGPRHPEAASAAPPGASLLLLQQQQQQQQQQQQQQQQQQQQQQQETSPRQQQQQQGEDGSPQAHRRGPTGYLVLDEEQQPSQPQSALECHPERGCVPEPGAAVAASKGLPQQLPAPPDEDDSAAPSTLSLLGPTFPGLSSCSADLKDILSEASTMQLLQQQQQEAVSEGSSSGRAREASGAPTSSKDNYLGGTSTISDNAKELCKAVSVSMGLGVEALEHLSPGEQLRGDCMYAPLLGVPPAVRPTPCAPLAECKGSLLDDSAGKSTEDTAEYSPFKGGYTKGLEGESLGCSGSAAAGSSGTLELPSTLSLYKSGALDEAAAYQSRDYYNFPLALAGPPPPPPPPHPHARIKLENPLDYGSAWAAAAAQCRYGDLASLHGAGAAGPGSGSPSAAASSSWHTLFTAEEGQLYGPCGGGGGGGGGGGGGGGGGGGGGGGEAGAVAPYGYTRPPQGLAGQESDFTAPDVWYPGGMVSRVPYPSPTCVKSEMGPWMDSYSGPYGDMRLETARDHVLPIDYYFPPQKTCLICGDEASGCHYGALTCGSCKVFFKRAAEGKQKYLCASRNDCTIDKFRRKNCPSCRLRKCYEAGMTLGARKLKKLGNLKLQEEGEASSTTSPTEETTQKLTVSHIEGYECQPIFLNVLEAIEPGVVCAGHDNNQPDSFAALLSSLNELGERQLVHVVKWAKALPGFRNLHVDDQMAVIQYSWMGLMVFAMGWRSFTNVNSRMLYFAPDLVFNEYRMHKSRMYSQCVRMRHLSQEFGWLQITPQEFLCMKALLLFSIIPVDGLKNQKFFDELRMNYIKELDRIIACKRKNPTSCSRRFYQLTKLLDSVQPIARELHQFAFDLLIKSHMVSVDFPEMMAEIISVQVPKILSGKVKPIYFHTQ
In words: Androgen-induced PSA (6.1 kb)-luciferase reporter assay in LNCaP cells. In kind it is cell-based. The conditions noted are these: LNCaP cells transfected with PSA (6.1 kb)-luciferase reporter, R1881 1 nM, 24 h; read-out: PSA-Luc IC50 Range. An outline of the steps: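 LNCaP cells carrying a PSA (6.1 kb) promoter-luciferase reporter with AREs; androgen-induced firefly luciferase read from lysates for 10 s. RLU normalized to protein content; IC50 calculated from the normalized data.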
(A reporter such as luciferase makes a cellular process visible.)

Usually IC50 stands for the concentration needed to halve the response being measured.

In the case of `CC(C)(c1ccc(OCc2coc(NS(C)(=O)=O)n2)cc1)c1cc(Cl)c(OCCCl)c(C#N)c1` [Compound A130], the microsomal CLint at 1 μM is 12 to 48 µL/min/mg in series [1] and below 12 µL/min/mg in series [2]. The hepatocyte CLint at 1 μM in series [3] is below 4 µL/min/1e6 cells. In addition, the concentration for half-maximal inhibition (IC50) on androgen receptor (AR) is 500 to 2000 nM.
In the same order, the values of `COc1ncc(COc2ccc(C(C)(C)c3cc(Cl)c(OCCCl)c(C#N)c3)cc2)o1` [Compound A112, 3-chloro-2-(2-chloroethoxy)-5-(2-(4-((2-methoxyoxazol-5-yl)methoxy)phenyl)propan-2-yl)benzonitrile] are below 12 µL/min/mg, 12 to 48 µL/min/mg, 4 to 18 µL/min/1e6 cells and below 500 nM.
For `CC(Oc1ccc(C(C)(C)c2cc(Cl)c(OCCCl)c(C#N)c2)cc1)c1ocnc1S(C)(=O)=O` (stereo not shown) [Compound A87] the same measures were below 12 µL/min/mg, 12 to 48 µL/min/mg, at least 18 µL/min/1e6 cells and 500 to 2000 nM.
In the same order, the values of `CC(C)(c1ccc(OCc2[nH]cnc2S(C)(=O)=O)cc1)c1cc(Cl)c(OCCCl)c(Cl)c1` [Compound A71] are 12 to 48 µL/min/mg, below 12 µL/min/mg, 4 to 18 µL/min/1e6 cells and 500 to 2000 nM.
On to `CC(C)(c1ccc(OCc2cnc(NS(C)(=O)=O)cn2)cc1)c1cc(Cl)c(OCCCl)c(C#N)c1` [Compound A197], for which the microsomal CLint at 1 μM in series [1] and in series [2] was below 12 µL/min/mg in each case. Besides, in series [3], the hepatocyte CLint at 1 μM is below 4 µL/min/1e6 cells. Also, the IC50 at androgen receptor (AR) is 500 to 2000 nM.
For `CC(C)(c1ccc(OCc2nc(C#N)cs2)cc1)c1cc(Cl)c(OCCCl)c(C#N)c1` [Compound A172, 2-((4-(2-(3-chloro-4-(2-chloroethoxy)-5-cyanophenyl)propan-2-yl)phenoxy)methyl)thiazole-4-carbonitrile], the microsomal CLint at 1 μM in series [1] and in series [2] was below 12 µL/min/mg in each case. The hepatocyte CLint at 1 μM in series [3] was below 4 µL/min/1e6 cells. On androgen receptor (AR), the IC50 was below 500 nM.
On to `CC(Oc1ccc(C(C)(C)c2cc(Cl)c(OCCCl)c(C#N)c2)cc1)c1cnc(NS(C)(=O)=O)o1` (stereo not shown) [Compound A92], for which the microsomal CLint at 1 μM in series [1] and in series [2] was 12 to 48 µL/min/mg throughout. For the same molecule, the hepatocyte CLint at 1 μM in series [3] was at least 18 µL/min/1e6 cells. In addition, at androgen receptor (AR), the IC50 is below 500 nM.
Turning to `Cc1cc(C(C)(C)c2ccc(OC(C)c3scnc3S(C)(=O)=O)cc2)cc(C#N)c1OCCCl` (stereo not shown) [Compound A70], the microsomal CLint at 1 μM in series [1] is 12 to 48 µL/min/mg; in series [2], at least 48 µL/min/mg. For the same molecule, the hepatocyte CLint at 1 μM in series [3] was in the range of 4 to 18 µL/min/1e6 cells. The IC50 at androgen receptor (AR) is below 500 nM.
For `CC(C)(c1ccc(OCc2cncnc2NS(C)(=O)=O)cc1)c1cc(Cl)c(OCCCl)c(C#N)c1` [Compound A148] the same measures were at least 48 µL/min/mg, below 12 µL/min/mg, below 4 µL/min/1e6 cells and 500 to 2000 nM.
Turning to `CC(C)(c1ccc(OCc2nccnc2NS(C)(=O)=O)cc1)c1cc(Cl)c(OCCCl)c(C#N)c1` [Compound A103], in series [1], the microsomal CLint at 1 μM was 12 to 48 µL/min/mg. For the same molecule, in series [2] (mouse liver microsomes), the “MLM +30/− NADPH: Clint (μL/min/mg protein)” value was “** (** represents Cl in the range of 12-48 μL/min/mg protein)”. Moreover, the “MH +/− NADPH: Clint (μL/min/million cells)” value in series [3] was “*** (*** represent Cl < 4 cells μL/min/million cells)”. The IC50 on androgen receptor (AR) is below 500 nM.
Turning to `CC(C)(c1ccc(OCc2ncoc2S(C)(=O)=O)cc1)c1cc(Cl)c(OCCCl)c(C#N)c1` [Compound A141], the microsomal CLint at 1 μM in series [1] is below 12 µL/min/mg; in series [2], at least 48 µL/min/mg. Further, the hepatocyte CLint at 1 μM in series [3] was at least 18 µL/min/1e6 cells. Moreover, the IC50 at androgen receptor (AR) is below 500 nM.
`CC(C)(c1ccc(NC(=O)c2coc(S(C)(=O)=O)n2)cc1)c1cc(Cl)c(OCCCl)c(C#N)c1` [Compound A96]: the microsomal CLint at 1 μM in series [1] and in series [2] was at least 48 µL/min/mg throughout. Moreover, the hepatocyte CLint at 1 μM in series [3] is at least 18 µL/min/1e6 cells. Moreover, on androgen receptor (AR), the IC50 was above 2000 nM.
As to `CC(C)(c1ccc(OCc2nc(C(N)=O)cs2)cc1)c1cc(Cl)c(OCCCl)c(C#N)c1` [Compound A171, 2-((4-(2-(3-chloro-4-(2-chloroethoxy)-5-cyanophenyl)propan-2-yl)phenoxy)methyl)thiazole-4-carboxamide], the microsomal CLint at 1 μM in series [1] and in series [2] was below 12 µL/min/mg throughout. Further, the hepatocyte CLint at 1 μM in series [3] fell in the range of 4 to 18 µL/min/1e6 cells. For the same molecule, the 50% inhibitory concentration (IC50) on androgen receptor (AR) lay within 500 to 2000 nM.
